Measured values: ChEMBL document CHEMBL1156800, “Probing Torpedo californica acetylcholinesterase catalytic gorge with two novel bis-functional galanthamine derivatives” (J Med Chem, 2010)

Molecular target: Acetylcholinesterase (Homo sapiens, UniProt P22303)
Assay: Inhibition of human recombinant AChE

Acetylcholinesterase, sequence (P22303 whole entry): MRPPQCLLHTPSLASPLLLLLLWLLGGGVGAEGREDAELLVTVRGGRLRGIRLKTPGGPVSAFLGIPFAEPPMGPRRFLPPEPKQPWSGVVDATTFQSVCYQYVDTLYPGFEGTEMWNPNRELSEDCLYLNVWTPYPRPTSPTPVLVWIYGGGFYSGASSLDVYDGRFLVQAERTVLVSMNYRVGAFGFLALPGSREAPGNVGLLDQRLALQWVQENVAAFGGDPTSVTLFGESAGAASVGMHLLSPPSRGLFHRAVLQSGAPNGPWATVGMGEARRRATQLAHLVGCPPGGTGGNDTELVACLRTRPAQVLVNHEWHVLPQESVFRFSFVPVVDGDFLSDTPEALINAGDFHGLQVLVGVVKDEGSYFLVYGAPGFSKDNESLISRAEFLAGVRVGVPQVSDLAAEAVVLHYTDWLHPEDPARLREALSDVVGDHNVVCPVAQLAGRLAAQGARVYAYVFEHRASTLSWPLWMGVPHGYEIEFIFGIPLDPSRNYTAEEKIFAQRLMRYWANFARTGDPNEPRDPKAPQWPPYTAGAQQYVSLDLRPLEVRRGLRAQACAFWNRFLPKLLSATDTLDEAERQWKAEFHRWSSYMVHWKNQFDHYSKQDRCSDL

COc1ccc2c3c1O[C@H]1C[C@@H](O)C=C[C@@]31CCN(CCCCCCCCN1C(=O)c3ccccc3S1(=O)=O)C2
IC50: 50 nM
